Test results as given in paper PMC2943488 (Molecular bioSystems, 2010).

Tests used:
[1] = test system: MEK–ERK signaling (p-MEK1, p-ERK1/2); experiment: Bio-Plex bead-based phosphoprotein assay, MEK–ERK pathway; assay type: cell-based, human
[2] = test system: primary human hepatocytes; experiment: Lactate dehydrogenase; assay type: cell-based
[3] = test system: Akt, p70 S6K, MEK–ERK, and p38–HSP27 signaling pathways; settings: donor #2; 100*Cmax

Question: With N#CC(=C(/N)Sc1ccccc1N)/C(C#N)=C(/N)Sc1ccccc1N [U0126] as the compound, how does the “inhibition of MEK signaling in human hepatocytes” value ([1]; donor #3, selection from panel of candidate inhibitors) read?
Answer: Its value is “potently inhibit signaling”.

Question: And the “toxicity induced by inhibitor itself in human hepatocytes” value ([2]; donor #3)?
Answer: Its value is “minimal toxicity”.

Question: How did the “MEK–ERK signaling under drug treatment” value ([1]; donor #1 and donor #2, 100*Cmax) turn out when CC[C@H]1OC(=O)[C@H](C)[C@@H](O[C@H]2C[C@@](C)(OC)[C@@H](O)[C@H](C)O2)[C@H](C)[C@@H](O[C@@H]2O[C@H](C)C[C@H](N(C)C)[C@H]2O)[C@](C)(OC)C[C@@H](C)C(=O)[C@H](C)[C@@H](O)[C@]1(C)O [clarithromycin] was run?
Answer: Its value is “sustained activation of MEK–ERK signaling”.

Question: With CN(C)CCCN1c2ccccc2CCc2ccc(Cl)cc21 [clomipramine] as the compound, how does the “activation of the four 'network gauge' signaling pathways compared to control treatments” value [3] read?
Answer: The value was “without significant activation”.

Question: Which “synergistic induction of cell death by drug/cytokine co-treatment” value ([2]; drug ± three-cytokine/LPS mix, donors #1 and #2) does the source give for N[C@@H]1[C@H]2CN(c3nc4c(cc3F)c(=O)c(C(=O)O)cn4-c3ccc(F)cc3F)C[C@@H]12 [trovafloxacin] here?
Answer: Its value is “synergistically induced”.
